Results reported in patent US20240216357A1 (SICHUAN HUIYU PHARMACEUTICAL CO., LTD., priority 2021, published 2024).
Counter-ions that a name gives are not always drawn. Like-named read-outs stand apart in the source and are kept apart here.

Assays:
LSD1 = LSD1 (Homo sapiens (Human), UniProt O60341); assay: LSD1 enzyme activity detection (HTRF); assay type: biochemical; settings: read-out: Inhibition of enzymatic activity of LSD1 IC50
NCI-H1417 cells = assay: In vitro cell proliferation detection (CellTiter-Glo, 7 days); assay type: cell-based; settings: Homo sapiens, 168 h; NCI-H1417 cells, 7 days, CellTiter-Glo; read-out: NCI-H1417 proliferation inhibition IC50

SMILES | IC50 (LSD1; HTRF, H3K4me1 substrate) [nM] | IC50 (NCI-H1417 cells) [nM] | IC50 (LSD1) [nM]
COc1ccc(-c2c(O)cc(N3CCC(N)CC3)nc2-c2ccc(C#N)c(F)c2)cc1C#N [Example 47, 4-(6-(4-aminopiperidin-1-yl)-3-(3-cyano-4-methoxyphenyl)-4-hydroxypyridin-2-yl)-2-fluorobenzonitrile] | 2.6 ± 1.3 | 106 | 
Cc1ccc(-c2c(O)cc(N(C)CCCN)nc2-c2ccc(C#N)c(F)c2)cc1O [Example 63, 4-(6-((3-aminopropyl)(methyl)amino)-4-hydroxy-3-(3-hydroxy-4-methylphenyl)pyridin-2-yl)-2-fluorobenzonitrile hydrochloride] | 5.1 ± 0.4 | 192 | 
CC(C)(O)Cn1ncc2cc(F)c(-c3sc(C(=O)N4C5CCC4CC(N)C5)cc3-c3ccc(C#N)c(F)c3)cc21 (stereo not drawn) [Example 217, 4-(5-(3-amino-8-azabicyclo [3.2.1]octan-8-carbonyl)-2-(5-fluoro-1-(2-hydroxy-2-methylpropyl)-1H-indazol-6-yl)thiophen-3-yl)-2-fluorobenzonitrile hydrochloride] | 12.8 | 67.8 | 
COc1ccc(-c2c(-c3ccc(C#N)c(F)c3)nc(N3CC4CC(C3)C4N)n3ccnc23)cc1F (stereo not drawn) [Example 167, 4-(5-(6-amino-3-azabicyclo [3.1.1]heptane-3-yl)-8-(3-fluoro-4-methoxyphenyl)imidazolo[1,2-c]pyrimidin-7-yl)-2-fluorobenzonitrile hydrochloride] | 78.4 | 155 | 
COc1ccc(-c2c(O)cc(N3CCN(C)CC3)nc2-c2ccc(C#N)c(F)c2)cc1F [Example 15, 2-fluoro-4-(3-(3-fluoro-4-methoxyphenyl)-4-hydroxy-6-(4-methylpiperazin-1-yl)pyridin-2-yl)benzonitrile] | 49.9 | 104 | 
COc1ccc(-c2c(-c3ccc(C#N)c(O)c3)nc(N3C4CCC3CC(N)C4)n3ccnc23)cc1F (stereo not drawn) [Example 185, 4-(5-(3-amino-8-azabicyclo[3.2.1]octane-8-yl)-8-(3-fluoro-4-methoxyphenyl)imidazolo[1,2-c]pyrimidin-7-yl)-2-hydroxybenzonitrile] | 14.1 | 160 | 
N#Cc1ccc(-c2cc(C(=O)N3C4CCC3CC(N)C4)sc2-c2ccc3cn[nH]c3c2)cc1F (stereo not drawn) [Example 203, 4-(5-(3-amino-8-azabicyclo [3.2.1]octane-8-carbonyl)-2-(1H-indazol-6-yl)thiophen-3-yl)-2-fluoro-benzonitrile] | 0.39 | 37.6 | 
COc1ccc(-c2c(O)cc(N3CC4CNCC4C3)nc2-c2ccc(C#N)c(F)c2)cc1F (stereo not drawn) [Example 52, 2-fluoro-4-(3-(3-fluoro-4-methoxyphenyl)-6-(hexahydropyrrolo[3,4-c]pyrrole-2(1H)-yl)-4-hydroxypyridin-2-yl)benzonitrile hydrochloride] |  | 167 | 100
Cc1noc2c(-c3sc(C(=O)N4C5CCC4CC(N)C5)cc3-c3ccc(C#N)c(F)c3)c(F)ccc12 (stereo not drawn) [Example 209, 4-(5-(3-amino-8-azabicyclo [3.2.1]octan-8-carbonyl)-2-(6-fluoro-3-methylbenzo[d]isoxazol-7-yl)thiophen-3-yl)-2-fluoro-benzonitrile hydrochloride] | 0.507 | 1.44 | 
N#Cc1ccc(-c2nc(N3CCC(N)CC3)cc(O)c2-c2ccc(OC(F)(F)F)c(O)c2)cc1F [Example 29, 4-(6-(4-aminopiperidin-1-yl)-4-hydroxy-3-(3-hydroxy-4-(trifluoromethoxy)phenyl)pyridin-2-yl)-2-fluorobenzonitrile hydrochloride] | 3.38 | 11.8 | 
Cn1ccc(-c2cnc(N3CCC(N)CC3)c(C#N)c2-c2ccc(C#N)c(F)c2)cc1=O [Example 83, 6-(4-aminopiperidin-1-yl)-4-(4-cyano-3-fluorophenyl)-1′-methyl-2′-oxo-1′,2′-dihydro-[3,4′-bipyridine]-5-carbonitrile hydrochloride] | 35.4 | 630 | 
N#Cc1ccc(-c2nc(N3C4CCC3CC(N)C4)n3ccnc3c2-c2ccc(F)c(O)c2)cc1F (stereo not drawn) [Example 157, 4-(5-(3-amino-8-azabicyclo [3.2.1]octane-8-yl)-8-(4-fluoro-3-hydroxyphenyl)imidazolo [1,2-c]pyrimidin-7-yl)-2-fluorobenzonitrile hydrochloride] | 0.3 ± 0.3 | 2.05 | 
Cc1ccc(-c2c(O)cc(N3CCC(N)CC3)nc2-c2ccc(C#N)c(F)c2)cc1O [Example 60] | 0.4 ± 0.2 | 0.49 | 
Cc1ccc(-c2c(-c3ccc(C#N)cc3)cc3c(N4CCC(N)CC4)nncn23)cc1 [Example 196, 4-(1-(4-aminopiperidin-1-yl)-6-(p-tolyl)pyrrolo[1,2-d][1,2,4]triazin-7-yl)benzonitrile hydrochloride] |  | 656 | 37.7

Continued, in another order:

IC50 (LSD1; HTRF, H3K4me1 substrate) [nM] | IC50 (NCI-H1417 cells) [nM] | SMILES | IC50 (LSD1) [nM]
6.9 ± 1.3 | 78 | CN(CCCN)c1nc(-c2ccc(C#N)c(F)c2)c(-c2ccc(F)c(O)c2)c2nccn12 [Example 148, 4-(5-((3-aminopropyl) (methyl)amino)-8-(4-fluoro-3-hydroxyphenyl)imidazolo [1,2-c]pyrimidin-7-yl)-2-fluorobenzonitrile] | 
15.9 | 21.3 | CC(C)(O)C#Cc1ccc(-c2c(-c3ccc(C#N)c(F)c3)nc(N3CCC(N)CC3)n3ccnc23)cc1F [Example 126, 4-(5-(4-aminopiperidin-1-yl)-8-(3-fluoro-4-(3-hydroxy-3-methyl-1-alkynyl-1-yl)phenyl)imidazolo[1,2-c]pyrimidin-7-yl)-2-fluorobenzonitrile hydrochloride] | 
3 ± 0.6 | 11.8 | COc1ccc(-c2c(OC)cc(N3CCNCC3)nc2-c2ccc(C#N)c(F)c2)cc1O [Example 96, 2-fluoro-4-(3-(3-hydroxy-4-methoxyphenyl)-4-methoxy-6-(piperazinyl)pyridin-2-yl)benzonitrile hydrochloride] | 
0.147 | 0.63 | CC(C)(O)COc1ccc(-c2cnc(N3CCC(N)CC3)c(C#N)c2-c2ccc(C#N)c(F)c2)cc1O [Example 86, hydrochloride] | 
165 ± 8 | 31 ± 8 | O=C(O)C1CCN(C(=O)c2cc(CN[C@@H]3C[C@H]3c3ccc(F)cc3)nc(-c3ccc(-n4cccn4)cc3)n2)CC1 [Example 234] | 
19.8 | 2.53 | CS(=O)(=O)N1CCN(C(=O)c2cc(CN[C@@H]3C[C@H]3c3ccc(F)cc3)nc(-c3ccc(-c4ccn[nH]4)cc3)n2)CC1 [Example 226] | 
26.9 | 12.6 | COc1ccc(-c2nc(CN[C@@H]3C[C@H]3c3ccc(F)cc3)cc(C(=O)N3CCOCC3)n2)cc1O [Example 241] | 
22.5 | 30.2 | COC(=O)C1CCN(C(=O)c2cc(CN[C@@H]3C[C@H]3c3ccc(F)cc3)nc(-c3ccc(-n4cccn4)cc3)n2)CC1 [Example 231] | 
770 | 29.5 | O=C(c1cc(CN[C@@H]2C[C@H]2c2ccc(F)cc2)nc(-c2cccnc2)n1)N1CCOCC1 [Example 240] | 
59.9 | 11.7 | COc1ccc(-c2c(-c3ccc(C#N)c(F)c3)nc(N3CC4CCC(C3)C4N)n3ccnc23)cc1F (stereo not drawn) [Example 162, 4-(5-(8-amino-3-azabicyclo [3.2.1]octyl-3-yl)-8-(3-fluoro-4-methoxyphenyl)imidazolo[1,2-c]pyrimidin-7-yl)-2-fluorobenzonitrile hydrochloride] | 
